Results: publication PMC4279406, “Simultaneous targeting of PI3Kδ and a PI3Kδ-dependent MEK1/2-Erk1/2 pathway for therapy in pediatric B-cell acute lymphoblastic leukemia” (Oncotarget, 2014)

What was measured:
[1] = system: PI3Kγ (MCP-1-stimulated THP-1 monocytes); experiment: MCP-1-stimulated Akt phosphorylation in THP-1 cells; format: cell-based; conditions: MCP-1 100 ng/ml
Procedure: In fibroblasts, signals from the insulin-like growth factor 1 (IGF-1) receptor are mediated by PI3Kα, while lysophosphatidic acid (LPA) stimulates G-protein coupled receptor (GPCR) signals via PI3Kβ[26]. After being pre-incubated with X-370, murine embryonic fibroblasts cultured in serum-free medium were stimulated with IGF-1 or LPA. […] Either PI3Kδ or PI3Kγ can be activated in THP-1 monocytes dependent on the stimulating ligand, among which macrophage colony stimulating factor (M-CSF/CSF-1) activates RTK-coupled PI3Kδ, while monocyte chemoattractant protein-1 (MCP-1) activates PI3Kγ [24]. Accordingly, THP-1 cells cultured in serum-free medium were stimulated with MCP-1 or M-CSF in the presence of X-370 and phosphorylated Akt was measured.
Cell lysates were probed with indicated antibodies. The IC50 values were calculated based on relative band intensity measured with ImageQuant™ TL (GE Healthcare Life Sciences, Piscataway, NJ) (B). Data shown are mean values from three independent experiments. (C, D, E, F) X-370 blocked stimuli-triggered PI3Kδ activation. MEF cells and THP-1 were starved in serum-free medium for 12 h or 4 h respectively and X-370 were added for an additional 1 h treatment following stimulation of IGF-1 at 100 ng/ml for MEF cells (C), LPA at 10 μM for MEF cells (D), MCP-1 at 100ng/ml for THP-1 (E) and M-CSF at 50 ng/ml for THP-1 (F). […]

PI3Kδ = PI3Kδ (Homo sapiens, UniProt O00329); experiment: Kinase Profiler lipid kinase IC50; format: biochemical; set-up: purchased Millipore (Kinase Profiler Services, United Kingdom); conditions: ATP at Km of the isoform; 10-point half-log dilution from 1000 nM
Chain of PI3Kδ (O00329 whole entry, canonical isoform): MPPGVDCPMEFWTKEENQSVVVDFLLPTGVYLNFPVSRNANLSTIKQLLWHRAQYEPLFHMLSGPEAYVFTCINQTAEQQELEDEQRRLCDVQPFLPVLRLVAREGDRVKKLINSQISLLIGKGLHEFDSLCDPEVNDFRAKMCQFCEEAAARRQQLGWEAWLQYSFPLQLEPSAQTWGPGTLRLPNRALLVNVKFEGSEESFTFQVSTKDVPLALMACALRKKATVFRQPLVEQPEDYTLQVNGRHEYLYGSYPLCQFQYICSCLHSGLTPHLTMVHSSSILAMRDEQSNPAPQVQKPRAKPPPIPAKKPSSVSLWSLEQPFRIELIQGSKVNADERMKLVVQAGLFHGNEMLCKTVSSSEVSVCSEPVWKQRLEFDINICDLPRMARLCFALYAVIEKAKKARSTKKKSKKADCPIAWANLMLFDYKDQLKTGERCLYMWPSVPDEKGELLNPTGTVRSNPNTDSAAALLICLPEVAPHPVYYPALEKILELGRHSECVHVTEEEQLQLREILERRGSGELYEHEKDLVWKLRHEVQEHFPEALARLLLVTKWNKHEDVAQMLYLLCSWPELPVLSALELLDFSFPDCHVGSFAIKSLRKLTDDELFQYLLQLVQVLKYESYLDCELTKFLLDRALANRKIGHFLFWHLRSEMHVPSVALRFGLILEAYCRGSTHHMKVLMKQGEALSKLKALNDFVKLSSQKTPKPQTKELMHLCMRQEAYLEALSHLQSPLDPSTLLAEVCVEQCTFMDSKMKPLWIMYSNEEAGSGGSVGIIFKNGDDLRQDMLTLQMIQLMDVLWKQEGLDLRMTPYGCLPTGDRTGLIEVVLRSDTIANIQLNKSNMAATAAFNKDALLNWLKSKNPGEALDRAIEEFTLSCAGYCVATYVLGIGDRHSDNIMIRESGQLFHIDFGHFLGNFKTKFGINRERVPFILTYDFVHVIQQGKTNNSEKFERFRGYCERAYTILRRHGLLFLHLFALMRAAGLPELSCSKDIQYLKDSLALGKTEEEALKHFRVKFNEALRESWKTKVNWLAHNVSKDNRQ
Chain of PI3Kδ (P27986 whole entry partner, canonical isoform): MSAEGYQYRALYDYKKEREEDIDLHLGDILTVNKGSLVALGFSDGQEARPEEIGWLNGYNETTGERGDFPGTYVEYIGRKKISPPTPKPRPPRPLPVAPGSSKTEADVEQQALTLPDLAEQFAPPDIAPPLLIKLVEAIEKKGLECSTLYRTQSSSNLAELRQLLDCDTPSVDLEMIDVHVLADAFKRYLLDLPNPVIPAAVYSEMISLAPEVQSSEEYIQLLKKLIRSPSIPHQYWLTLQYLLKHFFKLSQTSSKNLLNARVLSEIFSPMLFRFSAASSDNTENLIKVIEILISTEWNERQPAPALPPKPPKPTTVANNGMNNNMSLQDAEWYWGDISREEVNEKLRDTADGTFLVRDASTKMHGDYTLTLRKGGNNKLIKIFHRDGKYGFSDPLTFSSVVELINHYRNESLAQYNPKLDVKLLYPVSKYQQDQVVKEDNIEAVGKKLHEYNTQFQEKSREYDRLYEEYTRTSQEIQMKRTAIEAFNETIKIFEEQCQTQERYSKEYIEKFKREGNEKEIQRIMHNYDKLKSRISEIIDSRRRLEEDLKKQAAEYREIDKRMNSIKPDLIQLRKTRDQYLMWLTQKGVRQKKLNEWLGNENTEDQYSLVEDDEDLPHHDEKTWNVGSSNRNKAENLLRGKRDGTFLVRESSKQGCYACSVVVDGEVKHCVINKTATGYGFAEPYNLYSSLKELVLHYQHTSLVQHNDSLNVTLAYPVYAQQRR
Procedure: Figure 1 Structure of X-370 and its inhibitory activity against lipid kinases (A) Chemical structure of X-370. (B) X-370 docked to the crystal structure of PI3Kδ. The model was generated based on the co-crystal structure of PI3Kδ and ZSTK474 (PDB ID: 2WXL). (C) IC50 of X-370 against PI3Kδ increased along with ATP concentration. […] Data was obtained from Kinase Profiler Services (Millipore, United Kingdom). Briefly, X-370 was solved in DMSO at a concentration of 10 mM, 10-point kinase inhibitory activity was measured over concentrations in a half-log dilution series started at 1000 nM with ATP at a concentration consistent with Km of each isoform of class I PI3K and IC50s were calculated. Relative kinase activity in the presence of 10 μM X-370 compared to DMSO control was measured for the rest of lipid kinases. […]
In vitro kinase profile assays were analyzed by the Kinase Profiler Service (Millipore, United Kingdom) following its guidelines. […] The PI3K kinase activity was determined in the increasing concentration of ATP and X-370 with PI3-Kinase HTRF™ Assay kit (Millipore) as described previously.

- IC50 (PI3Kδ): 7 nM
SMILES: O=C(N1CCCC1)N1CCC(n2cnc3c(-n4c(C(F)F)nc5ccccc54)nc(N4CCOCC4)nc32)CC1 [X-370]
- MCP-1-stimulated Akt phosphorylation [1]: much less activity
